The text below walks through data of patent US20260109721A1, “IONIZABLE CATIONIC LIPIDS INCORPORATING SILICON: SYNTHESIS AND LNP FORMULATION” (priority 2023, published 2026).

Read-outs that look alike come from different tables or passages of the source.

In general, IC50 refers to the concentration needed to halve the response being measured.

One data set relates to HeLa cells. Description: Cell viability assessment with resazurin assay (Method A). The data set is classed as cell-based. As to conditions: human. The method, then:
The synthesized lipids were tested in term of in vitro transfection efficacy and toxicity on HeLa cells. In order to perform the mentioned biological tests, appropriate LNPs had to be formulated from the synthesized lipids. The formulation technique was different in Method A and B. The particle size, polydispersity index (PDI) and zeta potential of resulting LNPs were determined by means of Dynamic Light Scattering technique (DLS). Prior to biological testing the encapsulation efficiency (EE) of the loaded LNPs was determined by using RiboGreen RNA assay. In case of Method A Luc mRNA while in case of Method B GFP mRNA was transfected into the cells. In parallel with the transfection experiments, toxicity of the investigated LNPs was determined, in case of Method A resazurin assay while in case of Method B MTT assay was used. Additionally, the toxicity of the lipids was investigated on HepG2 cells and IC50 values were determined.
This protocol is used to determine the metabolic activity of cells as a measure for cell viability after exposure to potentially toxic substances. Resazurin is converted in mitochondria by reduction to resorufin, which has a much higher fluorescence at ˜600 nm compared to unconverted resazurin. A lower amount/percentage of conversion is correlated with reduced cellular metabolism and indirectly to cellular death and toxicity. Care must be taken with interpretation of the read-out, as 50% reduction in resazurin conversion may mean 50% reduction of cellular metabolism of 100% alive cells, or 50% of cells dead, and any combination in between.
• 1. Prepare 0.25 mg/ml stock solution resazurin in fresh cell culture medium. Resazurin is auto-reducing over time in solution, especially in medium, and fresh stocks should be prepared every 2-3 days. Stocks should be stored at 4° C. and protected from light. For HeLa cells, DMEM/F12 with 10% FCS is used. • 2. Dilute stock solution 10× in fresh cell culture medium to 0.025 mg/ml->ready for application on cells. For HeLa cells, DMEM/F12 with 10% FCS is used. • 3. Collect 96-well plate and replace cell-culture spent medium with 100 μl per well resazurin solution. Add some resazurin solution for background measurement in wells not containing cells. • 4. Incubate for 50 minutes in incubator at 37° C., 5% CO2, 95% RH. • 5. Transfer resazurin solution to a fresh 96- or 384-well plate. • 6. Measure in plate reader using 540/25 nm (excitation) and 610/40 nm (emission) using standard settings (PTM low/OD-1.0). • 7. Subtract the average background measurement from all samples. Set the average of the negative controls (well receiving OptiMEM only during transfection) to 100% and express all values as percentage of the control activity. Typically, at lower levels of treatment, elevation of metabolic activity is shown, whereas for toxic substances, at toxic concentrations sigmoidal curves can be obtained, with lower activity indicating higher toxicity.
(In general: Alamar Blue is a resazurin reagent that responds to reducing activity.)

The subject of another data set is HepG2 cell line. Description: In vitro toxicity study on HepG2 cell line (resazurin, viability and IC50). The following applies: for Viability (%) at different lipid concentrations, mean: HepG2 cells, 48 h post-treatment, relative to ethanol vehicle controls; for IC50: Homo sapiens, read-out: IC50 value, μM (on HepG2 cell). The class given is cell-based, human. The gist of the method:
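Resazurin read-out (ex 530/em 580 nm, 5 h at 37 °C) measured lipid toxicity 48 h after dosing HepG2 cells (1000/well) at 6.25–800 μM. Viability was normalised to ethanol vehicle, and IC50 was derived from concentration-response curves.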

Where [1] appears, read: lipid toxicity, HepG2, 48 h post-treatment, resazurin, 6.25-800 μM.

Regarding `CCCCCCCC/C=C\CCCCCCCC(OCC(CCCCCC)CCCCCCCC)O[Si](C)(C)OCCCCCCN(CCO)CCO` (stereo not shown) [Example 50, (Z)-13-(heptadec-8-en-1-yl)-16-hexyl-3-(2-hydroxyethyl)-11,11-dimethyl-10,12,14-trioxa-3-aza-11-silatetracosan-1-ol], the “Cell Viability % (Average metabolic rate over all doses, Resazurin)” value (from here on “Cell Viability %”) in the data set with HeLa cells is given as 98%. In addition, the “Viability (%) at different lipid concentrations, mean” value in the data set on HepG2 cell line (6.25 μM lipid, resazurin) worked out at 101.0%; with HepG2 cell line (12.5 μM lipid, resazurin), 97.6%; with HepG2 cell line (25 μM lipid, resazurin), 99.0%; with HepG2 cell line (50 μM lipid, resazurin), 97.9%; in the data set with HepG2 cell line (100 μM lipid, resazurin), 96.0%; in the data set on HepG2 cell line (200 μM lipid, resazurin) it was 100.0%. Besides, the “Viability (%) at different lipid concentrations, mean” value was determined as 96.5% in the data set with HepG2 cell line (400 μM lipid, resazurin) and 86.8% in the data set on HepG2 cell line (800 μM lipid, resazurin). Further, the half-inhibitory concentration (IC50) in the data set with HepG2 cell line (setting [1]) is more than 800 µM.
With `CCCCCCCC/C=C\CCCCCCCCOC(CC[C@@H](C)C1CCC2C3CCC4C[C@H](OC)CC[C@]4(C)C3CC[C@@]21C)O[Si](C)(C)OCCCCCCN(CCO)CCO` (stereo partly drawn) [Example 51, (Z)-3-(2-hydroxyethyl)-13-((3R)-3-((3R,10S,13R)-3-methoxy-10,13-dimethylhexadecahydro-1H-cyclopenta[a]phenanthren-17-yl)butyl)-11,11-dimethyl-10,12,14-trioxa-3-aza-11-siladotriacont-23-en-1-ol], the “Cell Viability %” value in the data set with HeLa cells was 92%. Besides, the “Viability (%) at different lipid concentrations, mean” value in the data set with HepG2 cell line (6.25 μM lipid, resazurin) is reported as 98.6%; with HepG2 cell line (12.5 μM lipid, resazurin), 94.4%; in the data set on HepG2 cell line (25 μM lipid, resazurin) it was 96.3%; in the data set on HepG2 cell line (50 μM lipid, resazurin), 100.0%; with HepG2 cell line (100 μM lipid, resazurin) it was 109.9%; in the data set on HepG2 cell line (200 μM lipid, resazurin) it was 114.9%. The “Viability (%) at different lipid concentrations, mean” value in the data set on HepG2 cell line (400 μM lipid, resazurin) came out at 102.9%; in the data set on HepG2 cell line (800 μM lipid, resazurin), 98.6%. In addition, the half-maximal inhibitory concentration (IC50) in the data set with HepG2 cell line (setting [1]) was more than 800 µM.
On to `CCCCC/C=C\C/C=C\CCCCCCCCOC(CC[C@@H](C)C1CCC2C3CCC4C[C@H](OC)CC[C@]4(C)C3CC[C@@]21C)O[Si](C)(C)OCCCCCCN(CCO)CCO` (stereo partly drawn) [Example 52, (23Z,26Z)-3-(2-hydroxyethyl)-13-((3R)-3-((3R,10S,13R)-3-methoxy-10,13-dimethylhexadecahydro-1H-cyclopenta[a]phenanthren-17-yl)butyl)-11,11-dimethyl-10,12,14-trioxa-3-aza-11-siladotriaconta-23,26-dien-1-ol], for which, in the data set with HeLa cells, the “Cell Viability %” value turned out to be 95%. In addition, the “Viability (%) at different lipid concentrations, mean” value was found to be 101.2% in the data set with HepG2 cell line (6.25 μM lipid, resazurin); 101.1% in the data set with HepG2 cell line (12.5 μM lipid, resazurin); 104.2% in the data set on HepG2 cell line (25 μM lipid, resazurin); 120.8% in the data set on HepG2 cell line (50 μM lipid, resazurin); 112.2% in the data set on HepG2 cell line (100 μM lipid, resazurin); 76.7% in the data set with HepG2 cell line (200 μM lipid, resazurin). Besides, the “Viability (%) at different lipid concentrations, mean” value in the data set with HepG2 cell line (400 μM lipid, resazurin) is given as 5.3%; in the data set with HepG2 cell line (800 μM lipid, resazurin), −0.7%. Besides, the half-inhibitory concentration (IC50) with HepG2 cell line (setting [1]) is 233 µM.
On to `CCCCC/C=C\C/C=C\CCCCCCCCOC(CCCCCCC/C=C\C/C=C\CCCCC)O[Si](C)(C)OCCCCCCN1CCOCC1` (stereo not shown) [Example 55, 4-((20Z,23Z)-10-((8Z,11Z)-heptadeca-8,11-dien-1-yl)-8,8-dimethyl-7,9,11-trioxa-8-silanonacosa-20,23-dien-1-yl)morpholine], for which the “Cell Viability %” value with HeLa cells is on record as 91%. Also, the “Viability (%) at different lipid concentrations, mean” value in the data set on HepG2 cell line (6.25 μM lipid, resazurin) turned out to be 91.7%; in the data set with HepG2 cell line (12.5 μM lipid, resazurin), 90.4%; with HepG2 cell line (25 μM lipid, resazurin) it was 92.4%; in the data set on HepG2 cell line (50 μM lipid, resazurin), 90.9%; in the data set with HepG2 cell line (100 μM lipid, resazurin) it was 94.1%; with HepG2 cell line (200 μM lipid, resazurin) it was 90.7%. The “Viability (%) at different lipid concentrations, mean” value is recorded as 7.9% with HepG2 cell line (400 μM lipid, resazurin) and 1.9% with HepG2 cell line (800 μM lipid, resazurin). The IC50 in the data set on HepG2 cell line (setting [1]) worked out at 316 µM.
On to `CCCCC/C=C\C/C=C\CCCCCCCCOC(CCCCCCC/C=C\C/C=C\CCCCC)O[Si](C)(C)OCCCCCCN(C)CCO` (stereo not shown) [Example 56, (23Z,26Z)-13-((8Z,11Z)-heptadeca-8,11-dien-1-yl)-3,11,11-trimethyl-10,12,14-trioxa-3-aza-11-siladotriaconta-23,26-dien-1-ol], for which, in the data set with HeLa cells, the “Cell Viability %” value stood at 93%. Also, the “Viability (%) at different lipid concentrations, mean” value with HepG2 cell line (6.25 μM lipid, resazurin) worked out at 96.7%; in the data set with HepG2 cell line (12.5 μM lipid, resazurin) it was 94.6%; in the data set on HepG2 cell line (25 μM lipid, resazurin), 96.5%; in the data set on HepG2 cell line (50 μM lipid, resazurin), 94.8%; with HepG2 cell line (100 μM lipid, resazurin) it was 99.7%; in the data set with HepG2 cell line (200 μM lipid, resazurin), 100.1%. For the same molecule, the “Viability (%) at different lipid concentrations, mean” value is 89.5% in the data set with HepG2 cell line (400 μM lipid, resazurin) and 36.9% in the data set with HepG2 cell line (800 μM lipid, resazurin). Further, the IC50 in the data set on HepG2 cell line (setting [1]) is 714 µM.
For the molecule `CCCCC/C=C\C/C=C\CCCCCCCCOC(CCCCCCC/C=C\C/C=C\CCCCC)O[Si](C)(C)OCCCCCCN1CCCCC1` (stereo not shown) [Example 57, 1-((20Z,23Z)-10-((8Z,11Z)-heptadeca-8,11-dien-1-yl)-8,8-dimethyl-7,9,11-trioxa-8-silanonacosa-20,23-dien-1-yl)piperidine], the “Cell Viability %” value in the data set with HeLa cells is listed as 99%. In addition, the “Viability (%) at different lipid concentrations, mean” value with HepG2 cell line (6.25 μM lipid, resazurin) was found to be 97.2%; in the data set on HepG2 cell line (12.5 μM lipid, resazurin), 93.7%; with HepG2 cell line (25 μM lipid, resazurin), 93.2%; in the data set on HepG2 cell line (50 μM lipid, resazurin), 94.3%; with HepG2 cell line (100 μM lipid, resazurin) it was 90.5%; in the data set on HepG2 cell line (200 μM lipid, resazurin) it was 86.9%. The “Viability (%) at different lipid concentrations, mean” value amounted to 47.6% with HepG2 cell line (400 μM lipid, resazurin) and 4.6% in the data set with HepG2 cell line (800 μM lipid, resazurin). In the data set with HepG2 cell line (HepG2, 48 h), the IC50 is 401 µM.
As for `CCCCC/C=C\C/C=C\CCCCCCCCOC(CCCCCCC/C=C\C/C=C\CCCCC)O[Si](C)(C)OCCCCCCN1CCN(CCO)CC1` (stereo not shown) [Example 58, 2-(4-((20Z,23Z)-10-((8Z,11Z)-heptadeca-8,11-dien-1-yl)-8,8-dimethyl-7,9,11-trioxa-8-silanonacosa-20,23-dien-1-yl)piperazin-1-yl)ethan-1-ol], the “Cell Viability %” value with HeLa cells is recorded as 97%. Moreover, the “Viability (%) at different lipid concentrations, mean” value with HepG2 cell line (6.25 μM lipid, resazurin) is on record as 104.2%; with HepG2 cell line (12.5 μM lipid, resazurin), 97.0%; in the data set with HepG2 cell line (25 μM lipid, resazurin), 102.1%; in the data set with HepG2 cell line (50 μM lipid, resazurin), 101.2%; in the data set with HepG2 cell line (100 μM lipid, resazurin), 104.1%; in the data set with HepG2 cell line (200 μM lipid, resazurin), 101.6%. The “Viability (%) at different lipid concentrations, mean” value with HepG2 cell line (400 μM lipid, resazurin) is 40.3%; in the data set on HepG2 cell line (800 μM lipid, resazurin) it was 3.8%. In addition, the half-maximal inhibitory concentration (IC50) in the data set on HepG2 cell line (setting [1]) turned out to be 375 µM.
